# Source: patent publication US8232101B2, “Identification of antigenic peptides from multiple myeloma cells” (Janssen Pharmaceutica N.V., priority 2009, dated 2012)
# Experiments:
# [1] = target: T1, HLA-A2 molecules in T2 cells (Homo sapiens, UniProt P04439, D140Y/D185E/D98H/E176V/E277Q/G131W/G231S/I119V/I121R/I166T/I218V/L300P/L318F/N151K/N90K/P208A/P217A/Q86G/Q94H/R138H/R169H/T345S); experiment: HLA-A2 Stabilization Assay (peptide binding, T2 cells, flow cytometry); design: key: Strong (S); Median (M); Weak (W); None (N)
# T1 construct: HLA-A2 molecules that are synthesized in a transporter associated with antigen processing (TAP)-deficient cell line, T2; host or cells: T2 cells (TAP-deficient human cell line)
# Description: The assay for peptide binding to class I major histocompatibility complex (MHC/HLA-A2) molecules is based on the ability of peptides to stabilize MHC class I, HLA-A2 molecules that are synthesized in a transporter associated with antigen processing (TAP)-deficient cell line, T2 (ATCC® Number: CRL-1992). The extent of stabilization of MHC class I molecules is directly related to the binding affinity of the added peptides (Townsend et al., Cell. 1990 Jul. 27; 62(2):285-95; Andersen et al., Tissue Antigens. 1999 August; 54(2):185-90).
# For the assay, T2 cells were plated in 96-well V-bottom plates, 100 ul/well RPMI media, at a density of 1×10^6 cells/ml, with final peptide concentrations of 200 uM, 20 uM, 2 uM, 200 nM, 20 nM, 2 nM, and no peptide as negative control. The cells with peptides were incubated for 18 hours at 26° C., 5% CO2. After 18 hours, the plates were transferred to 37° C., 5% CO2 and incubated for an additional 3 hours. The cells in plate were washed once with FACS buffer (PBS, 2.5% FCS, 1% NaN3) and then stained by adding 1 ul/well FITC-labeled mouse anti-human HLA-A2 antibody (BD Pharmingen, Cat. No. 551285), 1 ul/well PI, and then incubating at 4° C. for 30 minutes. After staining, cells were resuspended in 200 ul of FACS buffer and transferred from 96-well plates to racks of 96 microtubes. Samples were run on a FACScan flow cytometer and the data were analysed by using CellQuest software.
# A peptide of Hepatitis B Core protein (HBC) was used as a positive control. The Hepatitis B Core peptide is a potent HLA-A2.1 epitope and consists of residue numbers 18-27 of the core sequence, amino acids […] (SEQ ID NO:73) (Zhang et al. Immunology. 2007, 121(1):105-12).
# [2] = system: T2 cells loaded with individual peptides; experiment: 51Cr Release Assay for activity of CTL generated with peptide-loaded Drosophila aAPC; type: cell-based, human; design: key to CTL Activity: Strong (S); Median (M); Weak (W); None (N); conditions: for Ability to induce CTL in normal donors: truncated and computer predicted peptides; for Induction of CTL in two normal donors: Donor 1 and Donor 2, FIG. 3 and FIG. 4; for CTL Activities Median: number of donors that elicited Median activity over total number of donors; for CTL Activities Median / CTL Activities Strong / CTL Activities Weak / CTL Activities None: T2 targets loaded with individual peptide; for CTL Activities Strong: number of donors that elicited Strong activity over total number of donors; for CTL Activities Weak: number of donors that elicited Weak activity over total number of donors; for CTL Activities None: number of donors that elicited no activity over total number of donors
# Protocol: Drosophila aAPC were generated from Schneider S2 cells (S2 cells), which were originally established in 1969 from several hundred Oregon-R (wild type) Drosophila melanogaster (Oregon-R) embryos (American Type Culture Collection (ATCC) CRL-1963) according to published procedures (Schneider, J. Embryol. Exp. Morph. 1972 Vol 27, pp. 353-365), and deposited in the ATCC(CRL10974). S2 cells are grown in commercial Schneider's Drosophila medium supplemented with 10% heat-inactivated fetal bovine serum. In order to generate aAPCs, human complementary DNAs (cDNAs) for HLA-A2.1, B7.1, LFA-3, ICAM-1 and CD70, were individually inserted into the pRmHa-3 vector and S2 cells were transfected using the calcium phosphate precipitation method with a mixture of HLA-A2.1, B7.1, LFA-3, ICAM-1 and CD70 plasmid DNAs (for aAPC clone 1120) and the phshneo plasmid. (see U.S. Pat. No. 6,225,042 regarding construction and use of pRMHa plasmid vectors). The human cDNAs were prepared using standard techniques by reverse transcription-PCR using primers derived from the published sequences for HLA-A2.1 from K562 cells, B7.1 from K562 cells, LFA-3 from HL60 cells, ICAM-1 from K562 cells, and CD70 from HLA-A2.1+LCL cells. K562 cells are a human erythroleukemic cell line, HL60 cells are a promyelocytic leukemia human cell line, and HLA-A2.1+LCL cells are an Epstein-Barr virus (EBV)-transformed lymphoblastoid cell line (LCL). Stably transfected cells were selected by culturing in Schneider's medium containing geneticin. Prior to scale up of the cells, expression of the transfected genes is induced by the addition of CuSO4. The level of expression is assessed by flow cytometry using anti-HLA-A2.1, anti-B7.1, anti-LFA-3, anti-ICAM-1 and CD70 antibodies. For efficient in vitro activation of the CD8+ lymphocytes, greater than 30% of the Drosophila cells must express the HLA-A2.1 molecule. The Drosophila cells regularly express each of the molecules at levels between 70-90%. Drosophila aAPC were washed and then incubated at RT for 4 hours with 10 μM of different combinations of mixed peptides or individual peptides (See e.g. U.S. Pat. Nos. 6,225,042, 6,355,479, 6,362,001 and 6,790,662; U.S. Patent Application Publication Nos. 2009/0017000 and 2009/0004142; and International Publication No. WO2007/103009). Purified human CD8+ T cells from HLA-A2 positive donors were then incubated with peptide-loaded Drosophila APC at 37° C., 5% CO2, for 5 days. Human IL-2 (20 U/ml, R&D Systems) and IL-7 (30 U/ml, R&D Systems) were added at day 5 and the activated CD8+ T cells (CTL) were re-stimulated twice, at day 7 and day 15, with non-CD8 adherent cells in a total peripheral blood mononuclear cell (PBMC) preparation from the same donor in the presence of peptides.
# A number of different CTL were generated using CD8+ T cells from different donors and different combinations of mixed peptides, including combinations that contained only one peptide. For example, 24 selected peptides were mixed or used individually to create different combinations of peptide mixtures (PM) or individual peptides (P5 and P14) and produce peptide-loaded Drosophila APC. The resulting peptide-loaded Drosophila APC were incubated with CD8+ T cells from 2 different donors (Donor 1 and Donor 2) to produce 11 different batches of CTL (Donor 1: PM1, PM2, PM3, PM4, and P14; Donor 2: PM1, PM2, PM3, PM4, P5, and P14) (Table 3).
# CTL (Effector) activity was measured with a standard chromium (^51Cr) release assay, with T2 cells (Target) loaded with individual peptides and also with a number of tumor cell lines as target cells (Brunner et al., Immunology. 1968 February; 14(2):181-96). The highest Effector (E) Target (T) ratio (E/T) was 50:1, with 1:5 serial dilutions of CTL (Effector) used to produce a dose response. Before the assay, Target cells (T2 cells at 3×10^6 cells/100 ul in 1×PBS with 4% FCS) were labeled by adding 100 ul of ^51Cr (Perkin Elmer) and incubating at 37° C. for 1 hour. […]
# [3] = T2 targets loaded with computer predicted peptides
# [4] = truncated versions of P3, P13, P14
# [5] = CTL generated with truncated peptides, T2 targets loaded with individual peptides
"HLA-A2 Binding [1, 4]",Substance,Ability to induce CTL in normal donors [2],"CTL Activity [2, 5]",further results
W,IDLPGIT (listed as Homo sapiens) [Peptide P14-16],,W,
W,LIDLPGI (listed as Homo sapiens) [Peptide P14-15],able to induce CTL,S,
M,LVDLPGM (listed as Homo sapiens) [Peptide P13-13],able to induce CTL,W,
M,SLVLNLLEL (listed as Homo sapiens) [Peptide P3],,M,Induction of CTL in two normal donors [2]: induced CTL; CTL Activities Median [2]: 1/12; CTL Activities Strong [2]: 5/12; CTL Activities Weak [2]: 4/12; CTL Activities None [2]: 2/12
M,TLIDLPGITRV (listed as Homo sapiens) [Peptide P14],,M,Induction of CTL in two normal donors [2]: induced CTL; CTL Activities Median [2]: 1/17; CTL Activities Strong [2]: 14/17; CTL Activities Weak [2]: 1/17; CTL Activities None [2]: 1/17
N,TLVDLPGMT (listed as Homo sapiens) [Peptide P13-7],,,
N,VDLPGMTK (listed as Homo sapiens) [Peptide P13-12],,,
N,VDLPGMTKV (listed as Homo sapiens) [Peptide P13-2],,,
N,VLNLLEL (listed as Homo sapiens) [Peptide P3-2],,,

# Continued, substance first:
Substance,"HLA-A2 Binding [1, 4]",Ability to induce CTL in normal donors [2],"CTL Activity [2, 5]",further results
FQMEQIVYC (listed as Homo sapiens) [Peptide P14-19],,able to induce CTL,,"HLA-A2 Binding ([1]; computer predicted peptides): M; CTL Activity [2, 3]: M"
FVPEVSFEL (listed as Homo sapiens) [Peptide P13-18],,able to induce CTL,,"HLA-A2 Binding ([1]; computer predicted peptides): S; CTL Activity [2, 3]: M"
IDLPGITR (listed as Homo sapiens) [Peptide P14-14],W,able to induce CTL,M,
KLHDAIVEV (listed as Homo sapiens) [Peptide P13-17],,able to induce CTL,,"HLA-A2 Binding ([1]; computer predicted peptides): S; CTL Activity [2, 3]: S"
KLHDAIVEVV (listed as Homo sapiens) [Peptide P13-16],,,,"HLA-A2 Binding ([1]; computer predicted peptides): M; CTL Activity [2, 3]: W"
LVLNLLE (listed as Homo sapiens) [Peptide P3-8],N,able to induce CTL,M,
LVYLGHVIYL (listed as Homo sapiens) [Peptide P3-11],,able to induce CTL,,"HLA-A2 Binding ([1]; computer predicted peptides): W; CTL Activity [2, 3]: S"
NLLELVHLL (listed as Homo sapiens) [Peptide P3-9],,able to induce CTL,,HLA-A2 Binding ([1]; computer predicted peptides): S
TLVDLP (listed as Homo sapiens) [Peptide P13-10],N,,S,
TLVDLPGM (listed as Homo sapiens) [Peptide P13-8],N,,M,
TLVDLPGMTK (listed as Homo sapiens) [Peptide P13-6],N,,,
TLVDLPGMTKV (listed as Homo sapiens) [Peptide P13],M,,M,Induction of CTL in two normal donors [2]: induced CTL; CTL Activities Median [2]: 2/13; CTL Activities Strong [2]: 4/13; CTL Activities Weak [2]: 5/13; CTL Activities None [2]: 2/13
VDLPGMT (listed as Homo sapiens) [Peptide P13-14],N,,,
